Source: US20120157471A1, “BENZIMIDAZOLE DERIVATIVES” (PFIZER INC., priority 2009, published 2012)
Structures can show the parent of a compound that is named as a salt.

Columns and labels:
Gli-Luc/MEF cells (Smo) = assay: Gli-Luc/MEF assay (Shh-stimulated luciferase reporter under the Gli response element); type: cell-based, mouse; settings: Mus musculus, MEF, 48 h
Protocol: The Gli-Luc/MEF cells obtained from Gli-Luc transgenic mice (Pfizer CoE, Genetically Modified Mice) contain a luciferase reporter gene under the control of the Gli response element. Luciferase activity stimulated with Sonic hedgehog ligand was inhibited by Smo inhibitors, and IC50 was subsequently calculated.
Plates were incubated at 37° C. and 5% CO2 overnight. On day two, cells were dosed with test compounds at a final concentration ranging from […] to 50 μM at a 3-time series dilution. Immediately after dosing cells with compounds, recombinant mouse sonic hedgehog (Shh, R&D Systems 464-SH) was added to a final concentration of 2 μg/mL. The cells were incubated with compounds and Shh for 48 hours at 37° C. and 5% CO2. Luciferase assays were conducted on Day 4 using the Bright-Glo Luciferase assay system (Promega E2620) according to Promega's protocol. Briefly, Bright-Glo luciferase reagent was made up and 25 uL were added to each well of the 384-well plate containing media. Plates were kept at room temperature for 5 minutes, and then read on an Envision Luminescence plate reader (Perkin-Elmer). IC50 of the inhibition was calculated by using GraphPad Prism.

[1] = molecular target: T1, human Smo (amino acids 181-787) (Homo sapiens, UniProt Q99835); assay: Smo radioligand competition binding assay (displacement of 3H-PF-03451358 from HEK293 membranes); settings: for inhibition at 0.05 µM: 0.05 μM test compound, displacement of 3H-PF-03451358, read-out: SMO % inh. @ 0.05 μM; for IC50: radioligand competition binding
T1 construct: expressed in transfected cells; membrane preparation
Protocol: Membranes were prepared from a stable cell line created in HEK293FlpIn-TetR cells (Invitrogen) using FIp recombinase-mediated insertion of the pSecTag-FRT/V5-His vector containing a cDNA encoding amino acids 181-787 of human Smo fused to the murine lgk leader sequence to produce a cell surface expressed Smo 181-781 protein. Hygromycin-resistant clones were obtained and stained for LacZ expression (no expression indicates a correct knock-in of my fusion cDNA). LacZ-negative cells were analyzed for binding tritiated Smo antagonist PF-03451358. For membrane preparation, the HEK293 cells expressing Smo 181-781 were grown to 90% confluence in nine to fifteen 245 mm×245 mm×22 mm dishes, washed with Dulbecco's PBS (15 ml per dish) and harvested via scraping in 10 ml of DPBS. The cells were collected and centrifuged at 1500 rpm (400×g) for 10 min at 4° C. The cell pellets were re-suspended in 40 ml of cold DPBS and washed by centrifugation at 2300 rpm (950×g max) for 10 minutes at 4° C. The supernatant was aspirated and the cell pellet was snap frozen in a methanol/dry ice bath and stored at −70° C. For membrane preparation, 15 ml of Membrane Preparation Buffer (50 mM Tris-HCl pH 7.5, 250 mM sucrose with Roche complete protease cocktail tablets) is added to the tube containing the cell pellet, then cells are rapidly thawed, and homogenized using an Ultra-Turrax T8 (IKA Labortechnik) set on “6” for 15 seconds for 5-6 times in icy water bath. This homogenate was diluted up to 50 ml using Membrane Preparation Buffer and centrifuged at 35,000 rpm in a Beckman Ti45 rotor (140,000×g) for 35 minutes at 4° C. followed by aspiration of the supernatant and re-suspension of the pellet in 5 ml of Assay Buffer (50 mM Tris-HCl pH 7.5, 100 mM NaCl, 25 mM MgCl2, 1 mM EDTA, and 0.1% protease free bovine serum albumin). The re-suspended pellet is then homogenized in a glass tissue grinder. The re-suspended membranes are aliquoted (0.5 ml aliquots), snap frozen and stored at −70° C. Total protein in the membrane preparation is determined using the Pierce BCA protein assay (Pierce Chemical).
For the binding competition assay, 100 μl of Assay Buffer is added to all the wells of a 96 well GF/B filter plate (Millipore MultiScreen-HTS-FB cat# MSFBN6B50) for 10 minutes to pre-wet the filter prior to evacuation of the buffer (8 inches Hg for 8 seconds). To the pre-wet wells is added: 20 μl of Assay Buffer, 10 μl diluted test agent, 20 μl of ^3H-PF-3451358 (15 nM stock solution), and 50 μl of membrane preparation (40 μg total protein per well). The plates are sealed and mixed at room temperature for 5 min, incubated at room temperature for 2 hours, then washed 5 times with 100 μl/each of wash buffer and vacuum dried for 8 seconds at 8 inch Hg. The plate is then dried for one hour in a 60° C. oven prior to the addition of 45 μl of Microscint 20 (Packard, #6013621) to each well and incubation at RT for 30 minutes to 1 hour. The plate is counted in a TopCount scintillation counter (Perkin Elmer).
Data analysis uses Excel for % Inhibition and Graphpad Prism for IC50 calculation. Total binding (TB, in the absence of inhibitors)=average of ^3H PF-03451358 3 nM+SMO membrane (40 μg/wells (approx 5000-7000 CPM). Non-specific binding (NSB)=average of ^3H PF-03451358 (3 nM)+cold PF-03451358 (30 μM)+SMO membrane (approx 600-1200 CPM). Specific binding (SB)=(total binding−non-specific binding). % Inhibition=[1−(compound Specific binding/control Specific binding)]×100%. IC50 is calculated by fitting the data to the four parameter sigmoidal dose-response curve (variable slope) Y=Bottom+(Top-Bottom)/(1+10̂((LogEC50−X)*HillSlope)). X is the logarithm of the inhibitor concentration. Y is the response; Y starts at Bottom and goes to Top with a sigmoid shape.

T1 sequence (Q99835 181-787): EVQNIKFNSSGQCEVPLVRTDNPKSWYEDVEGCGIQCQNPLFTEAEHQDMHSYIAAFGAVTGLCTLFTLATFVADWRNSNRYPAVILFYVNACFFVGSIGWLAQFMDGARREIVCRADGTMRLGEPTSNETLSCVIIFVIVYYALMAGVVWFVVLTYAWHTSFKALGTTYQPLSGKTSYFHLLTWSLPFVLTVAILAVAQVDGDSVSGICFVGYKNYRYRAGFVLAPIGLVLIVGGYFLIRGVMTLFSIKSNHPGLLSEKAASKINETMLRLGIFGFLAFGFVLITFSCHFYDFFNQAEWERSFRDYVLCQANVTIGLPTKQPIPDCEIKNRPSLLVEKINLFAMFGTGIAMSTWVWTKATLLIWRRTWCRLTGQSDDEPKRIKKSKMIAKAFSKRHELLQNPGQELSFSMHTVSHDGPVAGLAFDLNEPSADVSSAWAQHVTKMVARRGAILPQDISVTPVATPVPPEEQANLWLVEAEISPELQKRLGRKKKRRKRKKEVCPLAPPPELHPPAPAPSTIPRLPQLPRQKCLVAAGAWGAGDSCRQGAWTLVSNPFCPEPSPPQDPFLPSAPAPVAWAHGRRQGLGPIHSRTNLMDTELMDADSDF

Cn1c(-c2cc(N3CCN(C(=O)CO)CC3)ncc2F)nc2ccccc21 [Example D-17, 1-{4-[5-fluoro-4-(1-methyl-1H-benzimidazol-2-yl)pyridin-2-yl]piperazin-1-yl}-2-hydroxyethanone]
IC50 (Gli-Luc/MEF cells (Smo)): 13 nM | inhibition at 0.05 µM [1]: 96% | IC50 [1]: 15 nM

Cn1c(-c2cc(N3CCC(N4CCNC(=O)C4=O)CC3)ncc2Cl)nc2ccccc21 [Example A-98, 1-{1-[5-chloro-4-(1-methyl-1H-benzimidazol-2-yl)pyridin-2-yl]piperidin-4-yl}piperazine-2,3-dione]
IC50 (Gli-Luc/MEF cells (Smo)): 66 nM | inhibition at 0.05 µM [1]: 85% | IC50 [1]: 122 nM

Cn1c(-c2cc(N3CCC(C)(O)CC3)ncc2Cl)nc2ccccc21 [Example A-30, 1-[5-chloro-4-(1-methyl-1H-benzimidazol-2-yl)pyridin-2-yl]-4-methylpiperidin-4-ol]
IC50 (Gli-Luc/MEF cells (Smo)): 11 nM | inhibition at 0.05 µM [1]: 96% | IC50 [1]: 28 nM

Cn1c(-c2nc(N3CCC(O)CC3)ncc2Cl)nc2ccccc21 [Example C-11, 1-[5-chloro-4-(1-methyl-1H-benzimidazol-2-yl)pyrimidin-2-yl]piperidin-4-ol]
IC50 (Gli-Luc/MEF cells (Smo)): 24 nM | inhibition at 0.05 µM [1]: 98% | IC50 [1]: 16 nM

Cn1c(-c2cc(N3CC(c4ncc[nH]4)C3)ncc2Cl)nc2ccccc21 [Example A-133, 2-{5-chloro-2-[3-(1H-imidazol-2-yl)azetidin-1-yl]pyridin-4-yl}-1-methyl-1H-benzimidazole]
inhibition at 0.05 µM [1]: 48%

Cn1cnnc1C1CCCN(c2cc(-c3nc4ccccc4n3C)c(Cl)cn2)C1 (stereo not shown) [Example A-138, 2-{5-chloro-2-[3-(4-methyl-4H-1,2,4-triazol-3-yl)piperidin-1-yl]pyridin-4-yl}-1-methyl-1H-benzimidazole]
inhibition at 0.05 µM [1]: 45%

CN1CCN(C2COCCN(c3cc(-c4nc5ccccc5n4C)c(Cl)cn3)C2)CC1 (stereo not shown) [Example A-137, 2-{5-chloro-2-[6-(4-methylpiperazin-1-yl)-1,4-oxazepan-4-yl]pyridin-4-yl}-1-methyl-1H-benzimidazole]
inhibition at 0.05 µM [1]: 45%

Cn1c(-c2ccnc(N3CCN(S(C)(=O)=O)CC3)n2)nc2ccccc21 [Example C-4, 1-Methyl-2-{2-[4-(methylsulfonyl)piperazin-1-yl]pyrimidin-4-yl}-1H-benzimidazole]
inhibition at 0.05 µM [1]: 45%

Cn1c(-c2cc(N3CCC(S(C)(=O)=O)CC3)ncc2Cl)nc2cccnc21 [Example A-37, 2-{5-chloro-2-[4-(methylsulfonyl)piperidin-1-yl]pyridin-4-yl}-3-methyl-3H-imidazo[4,5-b]pyridine]
inhibition at 0.05 µM [1]: 67% | IC50 [1]: 247 nM

Cn1c(-c2cc(N3CCC(O)(c4ncccn4)C3)ncc2Cl)nc2ccccc21 (stereo not shown) [Example A-140, 1-[5-chloro-4-(1-methyl-1H-benzimidazol-2-yl)pyridin-2-yl]-3-pyrimidin-2-ylpyrrolidin-3-ol]
inhibition at 0.05 µM [1]: 42%

Cn1c(-c2cc(N3CCC(C(=O)O)CC3)ncc2Cl)nc2ccccc21 [Example A-7, 1-[5-chloro-4-(1-methyl-1H-benzimidazol-2-yl)pyridin-2-yl]piperidine-4-carboxylic acid]
inhibition at 0.05 µM [1]: 39%

CC(=O)NC1CCN(c2cc(-c3nc4ccccc4n3C)c(Cl)cn2)C1 (stereo in doubt) [Example A-134, N-{(3S)-1-[5-chloro-4-(1-methyl-1H-benzimidazol-2-yl)pyridin-2-yl]pyrrolidin-3-yl}acetamide]
inhibition at 0.05 µM [1]: 48%

Cc1nccn1CC1(O)CCN(c2cc(-c3nc4ccccc4n3C)c(Cl)cn2)C1 (stereo not shown) [Example A-135, 1-[5-chloro-4-(1-methyl-1H-benzimidazol-2-yl)pyridin-2-yl]-3-[(2-methyl-1H-imidazol-1-yl)methyl]pyrrolidin-3-ol]
inhibition at 0.05 µM [1]: 46%

CC(=O)N1CCN(c2nccc(-c3nc4ccccc4n3C)n2)CC1 [Example C-2, 2-[2-(4-Acetylpiperazin-1-yl)pyrimidin-4-yl]-1-methyl-1H-benzimidazole]
inhibition at 0.05 µM [1]: 65% | IC50 [1]: 447 nM

CN(CCN)c1cc(-c2nc3ccccc3n2C)c(Cl)cn1 [Example A-184, N-[5-chloro-4-(1-methyl-1H-benzimidazol-2-yl)pyridin-2-yl]-N-methylethane-1,2-diamine]
inhibition at 0.05 µM [1]: 50% | IC50 [1]: 342 nM

Cn1c(-c2cc(N3CC(c4cccnn4)C3)ncc2Cl)nc2ccccc21 [Example A-139, 2-[5-chloro-2-(3-pyridazin-3-ylazetidin-1-yl)pyridin-4-yl]-1-methyl-1H-benzimidazole]
inhibition at 0.05 µM [1]: 42%

Cn1c(-c2cc(NCCN)ncc2Cl)nc2ccccc21 [Example A-142, N-[5-chloro-4-(1-methyl-1H-benzimidazol-2-yl)pyridin-2-yl]ethane-1,2-diamine]
inhibition at 0.05 µM [1]: 44%

CC(=O)N1CCN(c2cc(-c3nc4cccnc4n3C)c(Cl)cn2)CC1 [Example A-40, 2-[2-(4-acetylpiperazin-1-yl)-5-chloropyridin-4-yl]-3-methyl-3H-imidazo[4,5-b]pyridine]
inhibition at 0.05 µM [1]: 66% | IC50 [1]: 158 nM

COC(=O)N1CCN(c2nccc(-c3nc4ccccc4n3C)n2)CC1 [Example C-6, Methyl 4-[4-(1-methyl-1H-benzimidazol-2-yl)pyrimidin-2-yl]piperazine-1-carboxylate]
inhibition at 0.05 µM [1]: 27%

Cn1c(-c2nc(N3CCNCC3)ccc2Cl)nc2ccccc21 [Example B-1, 2-(3-chloro-6-piperazin-1-ylpyridin-2-yl)-1-methyl-1H-benzimidazole formate salt]
inhibition at 0.05 µM [1]: 59%

Cn1c(-c2cc(N3CCC(O)(CN4CCCC4=O)C3)ncc2Cl)nc2ccccc21 (stereo not shown) [Example A-136, 1-({1-[5-chloro-4-(1-methyl-1H-benzimidazol-2-yl)pyridin-2-yl]-3-hydroxypyrrolidin-3-yl}methyl)pyrrolidin-2-one]
inhibition at 0.05 µM [1]: 46%

Cn1c(-c2cc(NCCS(C)(=O)=O)ncc2Cl)nc2ccccc21 [Example A-167, 5-chloro-4-(1-methyl-1H-benzimidazol-2-yl)-N-[2-(methylsulfonyl)ethyl]pyridin-2-amine]
inhibition at 0.05 µM [1]: 64% | IC50 [1]: 287 nM

COC1CCN(c2cc(-c3nc4cccnc4n3C)c(Cl)cn2)CC1 [Example A-38, 2-[5-chloro-2-(4-methoxypiperidin-1-yl)pyridin-4-yl]-3-methyl-3H-imidazo[4,5-b]pyridine]
inhibition at 0.05 µM [1]: 51% | IC50 [1]: 463 nM
